Activity calls are given as the source filed them.
Legend:
CAAX prenyl protease 2 [1] = target: T1, CAAX prenyl protease 2 (Homo sapiens, UniProt Q9Y256); assay: inhibition of Ras-converting CAAX protease Rce1 – biochemical, yeast membranes, quenched-peptide fluorescence, cherry-pick, dose response (AID 588849)
T1 sequence (Q9Y256 whole entry): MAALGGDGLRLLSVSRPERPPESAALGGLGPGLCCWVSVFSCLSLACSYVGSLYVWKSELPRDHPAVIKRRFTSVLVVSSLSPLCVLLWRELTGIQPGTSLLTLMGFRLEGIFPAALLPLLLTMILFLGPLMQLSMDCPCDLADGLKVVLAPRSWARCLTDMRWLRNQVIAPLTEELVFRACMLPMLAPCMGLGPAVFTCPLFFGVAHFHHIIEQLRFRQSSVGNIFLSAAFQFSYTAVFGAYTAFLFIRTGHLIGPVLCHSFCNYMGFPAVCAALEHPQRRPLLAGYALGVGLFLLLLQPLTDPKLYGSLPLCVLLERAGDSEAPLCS

CAAX prenyl protease 2 [2] = target: CAAX prenyl protease 2 (Saccharomyces cerevisiae S288c, UniProt Q03530); type: biochemical
[3] = test system: Streptococcus sp. 'group A'; assay: Streptococcus pyogenes SK(-)GAS viability under kanamycin – luminescence, BacTiterGlo, confirmation, counter-screen for streptokinase expression inhibitor project, dose response (AID 1900); type: functional, organism-based
Streptokinase A = target: T2, Streptokinase A (Streptococcus pyogenes serotype M1, UniProt P10520); assay: viability-normalized secreted streptokinase activity reduction – plasminogen activation absorbance, OD405, dose response (AID 1914); type: functional, Streptococcus pyogenes M1 GAS;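 also: secreted streptokinase activity via plasminogen activation per viability signal from cell pellet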
T2 sequence (P10520 whole entry): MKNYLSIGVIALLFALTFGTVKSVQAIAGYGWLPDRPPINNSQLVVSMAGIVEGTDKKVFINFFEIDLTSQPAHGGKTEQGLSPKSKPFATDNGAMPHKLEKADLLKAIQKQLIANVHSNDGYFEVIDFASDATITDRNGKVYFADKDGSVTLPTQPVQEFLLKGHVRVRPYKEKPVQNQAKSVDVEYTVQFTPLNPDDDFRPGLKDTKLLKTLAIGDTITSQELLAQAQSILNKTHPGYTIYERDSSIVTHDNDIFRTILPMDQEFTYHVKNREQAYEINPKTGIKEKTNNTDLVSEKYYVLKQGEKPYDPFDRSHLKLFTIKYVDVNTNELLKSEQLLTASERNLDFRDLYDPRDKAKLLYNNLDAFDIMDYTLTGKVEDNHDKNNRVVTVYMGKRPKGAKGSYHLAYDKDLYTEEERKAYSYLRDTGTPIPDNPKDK

Streptococcus = assay: GAS UMAA2166 growth inhibition – luminescence, BacTiterGlo, counter-screen for streptokinase expression inhibitor project, dose response (AID 1915); type: functional, organism-based;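 also: potency for reduction of bacterial viability or growth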
Trypsin = Trypsin (Sus scrofa, UniProt P00761); assay: trypsin protease activity blockade – biochemical, quenched peptide fluorescence, cherry-pick, selectivity assay for Rce1 protease inhibitor project, dose response (AID 488789)
Cytochrome P450 1A2 = target: T3, Cytochrome P450 1A2 (Homo sapiens, UniProt P05177);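 also: PubChem cytochrome P450 panel assay, CYP1A2 panel member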
T3 sequence (P05177 whole entry): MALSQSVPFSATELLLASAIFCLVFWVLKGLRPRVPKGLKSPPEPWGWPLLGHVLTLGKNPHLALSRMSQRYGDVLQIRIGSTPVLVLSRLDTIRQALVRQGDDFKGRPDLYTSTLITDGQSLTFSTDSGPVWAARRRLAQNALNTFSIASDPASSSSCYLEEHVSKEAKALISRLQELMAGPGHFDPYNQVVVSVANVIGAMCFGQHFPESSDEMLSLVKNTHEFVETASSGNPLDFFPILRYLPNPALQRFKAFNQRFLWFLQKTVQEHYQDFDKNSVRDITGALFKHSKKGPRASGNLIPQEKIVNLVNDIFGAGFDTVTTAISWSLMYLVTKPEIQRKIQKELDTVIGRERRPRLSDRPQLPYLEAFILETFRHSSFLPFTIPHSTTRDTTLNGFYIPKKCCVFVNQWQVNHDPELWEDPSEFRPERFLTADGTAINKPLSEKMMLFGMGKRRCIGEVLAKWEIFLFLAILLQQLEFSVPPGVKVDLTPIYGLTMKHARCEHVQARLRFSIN

Cytochrome P450 2D6 = Cytochrome P450 2D6 (Homo sapiens, UniProt P10635);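 also: CYP2D6 member of a cytochrome P450 panel assay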
Cysteine protease ATG4B = target: T4, Cysteine protease ATG4B (Homo sapiens, UniProt Q9Y4P1); type: functional;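 also: Fluorescence-based dose-response confirmation assay measuring inhibition of ATG4B activity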
T4 sequence (Q9Y4P1 whole entry): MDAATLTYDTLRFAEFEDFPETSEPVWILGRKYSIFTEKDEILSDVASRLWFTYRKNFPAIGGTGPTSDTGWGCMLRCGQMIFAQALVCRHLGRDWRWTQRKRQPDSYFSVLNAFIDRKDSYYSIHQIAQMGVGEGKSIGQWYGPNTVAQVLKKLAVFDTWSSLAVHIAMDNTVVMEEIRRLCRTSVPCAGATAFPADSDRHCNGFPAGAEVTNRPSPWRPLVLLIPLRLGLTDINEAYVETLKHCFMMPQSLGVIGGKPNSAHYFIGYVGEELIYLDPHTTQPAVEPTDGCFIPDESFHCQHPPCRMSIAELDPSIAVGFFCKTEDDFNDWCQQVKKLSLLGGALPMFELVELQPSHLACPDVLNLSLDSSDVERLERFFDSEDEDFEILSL

[4] = target: T5, Runt-related transcription factor 1/Core-binding factor subunit beta (Homo sapiens, UniProt Q01196+Q13951); assay: disruptors of Runt domain/CBFb-SMMHC interaction – biochemical, FRET, Cerulean-Runt, Venus-CBFb-SMMHC, uHTS, […] (AID 1434); type: protein assay
[5] = viability loss in THP-1 monocytes – THP-1 cells, cytotoxicity control for Vif-APOBEC3G degradation inhibitor project, dose response (AID 1117359); type: functional; details: THP-1
NS3 = NS3 (Hepatitis C virus, UniProt A3EZJ3); assay: PubChem AID 2173; set-up: species or system Hepacivirus hominis
Phospholipase A2 = Phospholipase A2 (Homo sapiens, UniProt P04054); type: functional;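 also: confirmatory dose-response counterscreen on phospholipase A2, testing hits that came from an ultra-high-throughput screen for ATG4B inhibitors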
[6] = target: T5, Runt-related transcription factor 1/Core-binding factor subunit beta; assay: Runt domain/CBFb-SMMHC interaction disruptors – biochemical, TR-FRET (AID 1438); type: protein assay
[7] = Luminescence Cell-Based Dose Response HTS to Identify Activators of Luciferase Translation or Activity in H4 […] Cells. [Related pubchem assays: 1829 (Project Summary), 1814 (Primary HTS)]; type: functional
[8] = target: T6, RNA-binding protein pos-1 (Caenorhabditis elegans, UniProt G5EF15); assay: disruptors of C. elegans POS-1 RNA interaction – biochemical, fluorescence polarization, dose response (AID 1964);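 also: purified POS-1 fused to maltose binding protein made in E. coli; potency of compounds blocking POS-1 binding to fluorescent RNA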
T6 sequence (G5EF15 whole entry): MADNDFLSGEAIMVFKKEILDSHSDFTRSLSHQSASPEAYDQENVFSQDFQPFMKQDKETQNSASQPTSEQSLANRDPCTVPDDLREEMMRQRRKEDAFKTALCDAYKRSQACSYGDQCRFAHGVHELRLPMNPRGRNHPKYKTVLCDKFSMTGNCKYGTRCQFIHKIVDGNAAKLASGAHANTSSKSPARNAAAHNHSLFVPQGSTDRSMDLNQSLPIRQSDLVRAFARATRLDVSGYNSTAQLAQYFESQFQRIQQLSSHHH

[9] = viability of HCT116 lacking mutant beta-catenin – cell-based, human colon tumor, dose response (AID 1045); type: functional;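 also: HCT116 colon tumor cells with beta catenin knocked out; cells exposed to compound for 60 hours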
[10] = viability of PTEN-deleted HCT116 cells – cell-based, HCT116 PTEN knockout, dose response (AID 1047); type: functional;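 also: HCT116 colon tumor cells with PTEN knocked out; cells exposed to compound for 60 hours before readout; potency for loss of cell viability measured by luminescence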
Oxytocin receptor = Oxytocin receptor (Homo sapiens, UniProt P30559); assay: Counterscreen for vasopressin 1 receptor (V1R) agonists: Fluorescence-based cell-based high throughput dose response assay for agonists of the Oxytocin Receptor (OXTR). [Related pubchem assays: 2435 (Primary screen (OXTR agonists in singlicate)), 434964 (Confirmation screen (V1R agonists in triplicate)), 434969 (Counterscreen (OXTR agonists in …; type: functional
H4 = assay: Luminescence Cell-Based Dose Response HTS to Identify Activators of 5'UTR Stem-Loop Driven Prion Protein mRNA Translation in H4 Neuroglioblastoma Cells. [Related pubchem assays: 1829 (Project Summary), 1814 (Primary HTS)]; type: functional; details: Homo sapiens
Vasopressin V1a receptor = Vasopressin V1a receptor (Homo sapiens, UniProt P37288); assay: Fluorescence-based cell-based high throughput dose response screening assay for agonists of the vasopressin 1 receptor (V1R).; type: functional
[11] = Luminescence Cell-Based Dose Confirmation HTS to Identify Activators of 5'UTR Stem-Loop Driven Alpha-Synuclein mRNA Translation in H4 Neuroglioblastoma Cells. [Related pubchem assays: 1829 (Project Summary), 1814 (Primary HTS)]; type: functional
[12] = target: UDP-galactopyranose mutase (Mycobacterium tuberculosis, UniProt P9WIQ1); assay: Inhibitors of Mycobacterium tuberculosis UDP-galactopyranose mutase (UGM) enzyme Measured in Biochemical System Using Plate Reader - 2105-02_Inhibitor_Dose_CherryPick_Activity. [Related pubchem assays (depositor defined):AID504439]
[13] = target: T7, Zinc finger protein mex-5 (Caenorhabditis elegans, UniProt Q9XUB2); assay: potency of MEX-5 RNA-binding blockers – biochemical, C. elegans, fluorescence polarization, dose response (AID 1960)
T7 sequence (Q9XUB2 whole entry): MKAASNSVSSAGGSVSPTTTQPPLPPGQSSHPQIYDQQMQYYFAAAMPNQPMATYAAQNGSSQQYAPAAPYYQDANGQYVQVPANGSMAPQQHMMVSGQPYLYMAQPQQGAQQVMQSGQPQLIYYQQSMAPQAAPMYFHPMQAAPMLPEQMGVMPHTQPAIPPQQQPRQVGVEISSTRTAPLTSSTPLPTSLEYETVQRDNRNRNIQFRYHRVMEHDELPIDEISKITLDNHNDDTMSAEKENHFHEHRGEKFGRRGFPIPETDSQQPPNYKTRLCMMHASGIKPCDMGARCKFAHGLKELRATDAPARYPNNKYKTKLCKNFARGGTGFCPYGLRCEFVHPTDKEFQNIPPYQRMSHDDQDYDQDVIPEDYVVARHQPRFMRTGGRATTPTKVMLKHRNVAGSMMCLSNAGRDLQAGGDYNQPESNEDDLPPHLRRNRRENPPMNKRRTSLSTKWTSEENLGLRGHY

T5 sequence (Q01196 whole entry, the tested form may be a part): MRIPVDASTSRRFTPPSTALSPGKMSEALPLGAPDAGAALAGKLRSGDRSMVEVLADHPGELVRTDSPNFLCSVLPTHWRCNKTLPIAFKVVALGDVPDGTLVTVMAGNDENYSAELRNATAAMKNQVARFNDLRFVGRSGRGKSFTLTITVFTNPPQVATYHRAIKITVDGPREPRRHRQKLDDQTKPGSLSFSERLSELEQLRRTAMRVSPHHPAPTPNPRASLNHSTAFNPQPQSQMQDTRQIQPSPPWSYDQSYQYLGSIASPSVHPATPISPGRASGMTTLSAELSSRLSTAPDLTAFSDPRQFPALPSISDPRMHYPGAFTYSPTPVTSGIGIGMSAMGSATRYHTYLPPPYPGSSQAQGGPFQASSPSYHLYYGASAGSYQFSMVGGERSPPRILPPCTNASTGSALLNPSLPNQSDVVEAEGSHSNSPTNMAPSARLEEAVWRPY
T5 sequence (Q13951 whole entry, the tested form may be a part): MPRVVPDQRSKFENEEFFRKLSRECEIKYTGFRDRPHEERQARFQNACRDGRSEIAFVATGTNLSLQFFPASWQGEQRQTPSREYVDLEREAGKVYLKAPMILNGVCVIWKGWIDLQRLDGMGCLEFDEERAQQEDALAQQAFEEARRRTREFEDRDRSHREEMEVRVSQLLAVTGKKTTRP
Sequence of Phospholipase A2 (P04054 whole entry, the tested form may be a part): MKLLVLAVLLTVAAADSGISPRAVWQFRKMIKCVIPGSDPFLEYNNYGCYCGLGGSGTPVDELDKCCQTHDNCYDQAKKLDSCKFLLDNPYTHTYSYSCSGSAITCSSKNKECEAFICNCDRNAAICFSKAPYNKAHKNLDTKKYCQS
Sequence of Oxytocin receptor (P30559 whole entry): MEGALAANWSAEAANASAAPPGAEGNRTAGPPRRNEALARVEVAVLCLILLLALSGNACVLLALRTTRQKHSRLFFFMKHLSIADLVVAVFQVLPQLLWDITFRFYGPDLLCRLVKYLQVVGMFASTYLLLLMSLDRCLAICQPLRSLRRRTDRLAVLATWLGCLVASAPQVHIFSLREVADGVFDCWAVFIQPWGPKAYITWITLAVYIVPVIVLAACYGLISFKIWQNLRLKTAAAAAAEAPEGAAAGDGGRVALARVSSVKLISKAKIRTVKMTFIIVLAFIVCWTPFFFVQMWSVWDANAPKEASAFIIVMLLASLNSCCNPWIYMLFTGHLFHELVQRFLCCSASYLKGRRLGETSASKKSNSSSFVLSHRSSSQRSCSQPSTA
Sequence of CAAX prenyl protease 2 (Saccharomyces cerevisiae S288c, UniProt Q03530) (Q03530 whole entry): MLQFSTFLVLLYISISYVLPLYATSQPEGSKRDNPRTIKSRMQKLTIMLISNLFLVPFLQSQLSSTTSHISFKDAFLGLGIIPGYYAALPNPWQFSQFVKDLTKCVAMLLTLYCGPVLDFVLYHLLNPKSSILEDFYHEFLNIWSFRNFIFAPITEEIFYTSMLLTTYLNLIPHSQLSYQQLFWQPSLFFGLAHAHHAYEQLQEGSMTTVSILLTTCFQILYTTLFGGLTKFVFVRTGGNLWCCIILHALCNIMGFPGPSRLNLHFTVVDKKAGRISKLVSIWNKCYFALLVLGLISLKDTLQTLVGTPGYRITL
Sequence of Trypsin (P00761 whole entry): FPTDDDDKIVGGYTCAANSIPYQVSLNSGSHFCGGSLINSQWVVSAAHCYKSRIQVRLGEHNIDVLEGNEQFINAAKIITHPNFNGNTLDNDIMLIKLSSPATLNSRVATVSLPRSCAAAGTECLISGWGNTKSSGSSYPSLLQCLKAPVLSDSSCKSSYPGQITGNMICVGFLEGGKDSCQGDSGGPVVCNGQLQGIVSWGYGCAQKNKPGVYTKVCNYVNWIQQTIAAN
Sequence of UDP-galactopyranose mutase (P9WIQ1 whole entry): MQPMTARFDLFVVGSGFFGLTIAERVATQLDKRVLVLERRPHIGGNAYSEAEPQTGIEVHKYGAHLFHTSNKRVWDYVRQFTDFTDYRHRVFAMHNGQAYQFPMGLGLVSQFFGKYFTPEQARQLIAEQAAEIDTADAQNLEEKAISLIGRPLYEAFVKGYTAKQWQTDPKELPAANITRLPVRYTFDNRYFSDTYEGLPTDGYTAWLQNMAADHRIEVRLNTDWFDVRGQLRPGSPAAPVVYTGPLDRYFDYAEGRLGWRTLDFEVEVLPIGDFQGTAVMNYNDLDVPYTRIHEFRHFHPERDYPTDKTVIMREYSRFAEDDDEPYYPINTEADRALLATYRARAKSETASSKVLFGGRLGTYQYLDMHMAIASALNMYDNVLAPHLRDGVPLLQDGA
Sequence of NS3 (A3EZJ3 whole entry): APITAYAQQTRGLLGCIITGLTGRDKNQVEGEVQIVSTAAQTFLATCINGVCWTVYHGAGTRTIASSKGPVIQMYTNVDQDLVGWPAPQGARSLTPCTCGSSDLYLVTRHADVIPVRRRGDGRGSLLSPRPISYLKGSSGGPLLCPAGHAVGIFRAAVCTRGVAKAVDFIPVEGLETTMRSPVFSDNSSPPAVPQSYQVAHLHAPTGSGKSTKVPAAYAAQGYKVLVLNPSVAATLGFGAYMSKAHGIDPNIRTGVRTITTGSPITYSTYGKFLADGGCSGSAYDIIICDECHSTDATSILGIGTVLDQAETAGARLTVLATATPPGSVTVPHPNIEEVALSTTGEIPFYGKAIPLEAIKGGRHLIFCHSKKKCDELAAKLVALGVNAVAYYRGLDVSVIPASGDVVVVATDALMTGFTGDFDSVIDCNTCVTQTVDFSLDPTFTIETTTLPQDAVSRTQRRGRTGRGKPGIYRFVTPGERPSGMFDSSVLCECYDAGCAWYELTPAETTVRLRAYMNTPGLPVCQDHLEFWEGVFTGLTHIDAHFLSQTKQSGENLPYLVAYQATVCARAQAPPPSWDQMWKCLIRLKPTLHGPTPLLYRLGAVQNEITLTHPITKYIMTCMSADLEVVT
Sequence of Cytochrome P450 2D6 (P10635 whole entry): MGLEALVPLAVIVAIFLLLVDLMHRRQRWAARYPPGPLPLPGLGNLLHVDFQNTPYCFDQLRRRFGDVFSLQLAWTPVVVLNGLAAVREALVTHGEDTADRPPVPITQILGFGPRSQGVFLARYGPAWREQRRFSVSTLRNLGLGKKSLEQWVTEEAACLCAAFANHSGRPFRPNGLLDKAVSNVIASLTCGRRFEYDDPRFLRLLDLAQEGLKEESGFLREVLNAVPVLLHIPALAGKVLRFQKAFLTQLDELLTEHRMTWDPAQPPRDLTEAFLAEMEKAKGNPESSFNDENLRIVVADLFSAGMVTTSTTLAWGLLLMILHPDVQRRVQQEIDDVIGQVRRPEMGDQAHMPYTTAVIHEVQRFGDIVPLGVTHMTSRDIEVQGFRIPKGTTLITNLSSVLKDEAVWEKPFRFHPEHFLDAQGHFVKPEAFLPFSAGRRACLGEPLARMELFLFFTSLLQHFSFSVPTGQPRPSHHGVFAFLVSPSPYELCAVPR
Sequence of Vasopressin V1a receptor (P37288 whole entry): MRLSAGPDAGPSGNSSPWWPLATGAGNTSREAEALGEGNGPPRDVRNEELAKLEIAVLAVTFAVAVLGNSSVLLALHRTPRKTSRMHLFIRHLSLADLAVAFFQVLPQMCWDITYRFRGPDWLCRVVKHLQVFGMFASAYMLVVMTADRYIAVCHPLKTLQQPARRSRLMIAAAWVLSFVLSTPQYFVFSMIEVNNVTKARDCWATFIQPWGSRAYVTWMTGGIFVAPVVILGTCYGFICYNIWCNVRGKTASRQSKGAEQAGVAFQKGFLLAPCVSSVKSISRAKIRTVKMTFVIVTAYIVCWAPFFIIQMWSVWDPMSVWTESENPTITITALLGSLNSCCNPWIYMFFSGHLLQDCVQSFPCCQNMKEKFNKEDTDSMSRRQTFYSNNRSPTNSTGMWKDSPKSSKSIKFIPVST

CCCCNc1c(-c2ccc(SC(C)CC)c(OC)c2)nc2ccc(C)cn12 (stereo unspecified)
AC50 (CAAX prenyl protease 2 [1]): 32.5 µM (active) | AC50 (CAAX prenyl protease 2 [2]): 39.7 µM (active) | EC50 [3]: 3.09 µM (active) | EC50 (Streptokinase A): 8.79 µM (active) | EC50 (Streptococcus): 10.2 µM (active) | AC50 (Trypsin): 2.63 µM (active)

CCNC(=O)COC(=O)c1cc(O)nc2ccccc12
AC50 (Cytochrome P450 1A2): 15.8 µM (inconclusive) | AC50 (Cytochrome P450 2D6): inconclusive

CC1CCCCC1NC(=O)COC(=O)c1c2c(nc3ccccc13)/C(=C/c1ccco1)CC2 (stereo unspecified)
IC50 (Cysteine protease ATG4B): 14.4 µM (active) | IC50 [4]: > 100 µM (inactive) | CC50 [5]: > 40 µM (active) | IC50 (NS3): 11.1 µM (not active) | IC50 (Phospholipase A2): 8.31 µM (active) | IC50 [6]: 10.6 µM (active)

CCOCCCn1c(=N)c(C(N)=S)cc2c(=O)n3cccc(C)c3nc21
IC50 [4]: 0.257 µM (active) | IC50 [6]: 68.8 µM (inactive)

O=C1c2cccc3c(N4CCCCC4)ccc(c23)C(=O)N1CCO
EC50 [7]: 94.8 µM (active) | EC50 [8]: 65.2 µM (active) | EC50 [9]: 164 µM (active) | EC50 [10]: 67.5 µM (active) | EC50 (Oxytocin receptor): > 3.32 µM (active) | EC50 (H4): > 120 µM (not active) | EC50 (Vasopressin V1a receptor): 4.75 µM (active) | EC50 [11]: 16.5 µM (active) | AC50 [12]: 151 µM (active) | EC50 [13]: 114 µM (active)

From ChEMBL document CHEMBL1201862, “PubChem BioAssay data set” (2004)
